Reference: patent US20230346661A1, “Anhydrous Azelaic Acid Topical Formulations” (Baek Clinical Inc., priority 2020, published 2023)
One block for each compound: values may come before it.

Assays:
[1] = Solubility of optional additional components in non-aqueous solvents; assay type: physicochemical
Description: Additional ingredients were chosen for their compatibility with (e.g., miscibility in) 1,3 propanediol, 1,2 propanediol, and 1,3 butanediol.

[2] = Maximum concentration of azelaic acid solubilized with heat in a given solvent without precipitation upon cooling; assay type: physicochemical; conditions: in dimethyl isosorbide, relative to the approximately 10 to 12% of the diols
Description: In order to determine a desirable ratio of azelaic acid to urea for certain compositions of this disclosure, the maximum concentration for azelaic acid that can be solubilized is first determined, with heat exposure, in a given solvent without precipitation upon cooling.

[3] = Ability of polyol solvents to solubilize azelaic acid; assay type: physicochemical
Experimental: A series of experiments were performed to assess and optimize the components of the subject formulations.

[4] = cited from earlier work
melasma = conditions: cited from earlier work
[5] = test system: transepidermal water loss; conditions: in vivo; cited from earlier work
erythema (skin redness) = conditions: concentrations of 0.2%; cited from earlier work

Compound: CC(C)(CO)[C@@H](O)C(=O)NCCCO [Panthenol]
- concentration at which inhibition of transepidermal water loss is apparent [5]: ≥ 1%

Compound: madecassoside
- solubility ([1]; at a concentration of 0.2% in 1,3 propanediol, 1,2 propanediol and 1,3 butanediol): soluble
- ability to reduce erythema (skin redness) (erythema (skin redness)): desirable ability to reduce erythema

Now from value to compound, other results behind:

- solubility ([1]; in 1,3-propanediol): shows solubility
Compound: CC1(C)[C@@H](O[C@H]2O[C@H](C(=O)O)[C@@H](O)[C@H](O)[C@H]2O[C@@H]2O[C@H](C(=O)O)[C@@H](O)[C@H](O)[C@H]2O)CC[C@]2(C)[C@H]3C(=O)C=C4[C@@H]5C[C@@](C)(C(=O)O)CC[C@]5(C)CC[C@@]4(C)[C@]3(C)CC[C@@H]12 [glycyrrhizic acid]

- solubility ([1]; at 0.5-1% in 1,3 propanediol, 1,2 propanediol and 1,3 butanediol): readily soluble
Compound: COc1cc(CC(C(C)=O)C(C)=O)ccc1O [Acetyl zingerone]

- maximum concentration for azelaic acid that can be solubilized [2]: significantly lower
- ability to solubilize azelaic acid ([3]; solvent 1,2-hexanediol used alone): moderate
- ability to solubilize azelaic acid ([3]; solvent 1,2-propanediol (propylene glycol)): moderate
- ability to solubilize azelaic acid ([3]; solvent 1,3-butanediol (butylene glycol)): moderate
- ability to solubilize azelaic acid ([3]; solvent 1,3-propanediol): moderate
- ability to solubilize azelaic acid ([3]; solvent 1,5-pentanediol (pentylene glycol)): moderate
- ability to solubilize azelaic acid ([3]; solvent dimethyl isosorbide): very limited
- ability to solubilize azelaic acid ([3]; solvents glycerin and diglycerin): moderate and low
Compound: O=C(O)CCCCCCCC(=O)O [azelaic acid]
- solubility in cosmetic oils ([4]; cosmetic oils): little or no solubility
- stability of azelaic acid in alcohol ([4]; ethyl alcohol, normal temperatures): unstable
- maximum azelaic acid in a water and azelaic acid solution ([4]; water): about 0.24 % by weight (w/w)
- treatment differences in overall rating, reduction in lesion size and pigmentary intensity (melasma; 20% azelaic acid compared to 4% hydroquinone): no significant treatment differences
- allergic sensitization or exogenous ochronosis (melasma; 20% azelaic acid): no allergic sensitization or exogenous ochronosis observed
- good or excellent results in lightening melasma (melasma; 20% azelaic acid): 65%
